Data: the supplement of paper PMC10307832

What was measured:
Test in all cases: relative viability (nuclei count vs DMSO), 5 days (fraction); higher = more cells survive
NCI-H1651 = test system: NCI-H1651
Summary of the method: (§1)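 Nuclei were stained with Hoechst during a one-step fixation (final 0.05% Triton X-100, 1% formaldehyde, 1 ug/ml Hoechst) carried out 5 days after dosing, then counted on 4× images. The cells, lung cancer lines in 1536-well plates, had been dosed by pin tool the day after seeding with one drug alone or a fixed anchor-drug dose plus five library-drug doses (not always all listed) in √10 steps. Relative viability is the nuclei count in treated wells divided by that in vehicle wells, and each value is the median of duplicate plates.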

LC-2-ad = test system: LC-2-ad
Summary of the method: as §1

NCI-H1734 = test system: NCI-H1734
Summary of the method: as §1

EPLC-272H = test system: EPLC-272H
Summary of the method: as §1

ChaGo-K-1 = test system: ChaGo-K-1
Summary of the method: as §1

NCI-H2170 = test system: NCI-H2170
Summary of the method: as §1

LU99A = test system: LU99A
Summary of the method: as §1

NCI-H2405 = test system: NCI-H2405
Summary of the method: as §1

NCI-H1395 = test system: NCI-H1395
Summary of the method: as §1

NCI-H1793 = test system: NCI-H1793
Summary of the method: as §1

ABC-1 = test system: ABC-1
Summary of the method: as §1

NCI-H460 = test system: NCI-H460
Summary of the method: as §1

PC-3 [JPC-3] = test system: PC-3 [JPC-3]
Summary of the method: as §1

NCI-H3122 = test system: NCI-H3122
Summary of the method: as §1

NCI-H2087 = test system: NCI-H2087
Summary of the method: as §1

NCI-H1944 = test system: NCI-H1944
Summary of the method: as §1

LOU-NH91 = test system: LOU-NH91
Summary of the method: as §1

HCC-78 = test system: HCC-78
Summary of the method: as §1

RERF-LC-KJ = test system: RERF-LC-KJ
Summary of the method: as §1

NCI-H1755 = test system: NCI-H1755
Summary of the method: as §1

UMC-11 = test system: UMC-11
Summary of the method: as §1

HCC-366 = test system: HCC-366
Summary of the method: as §1

In the case of Clc1ccc(Nc2nnc(Cc3ccncc3)c3ccccc23)cc1 [Vatalanib] + Nc1ncn([C@H]2C[C@H](O)[C@@H](CO)O2)c(=O)n1 [Decitabine] (partner 2 µM), the relative viability (NCI-H1651; first compound 0.04 µM) is reported as 0.518, the relative viability (NCI-H1651; first compound 0.1265 µM) is reported as 0.59 and the relative viability (NCI-H1651; first compound 0.4 µM) is reported as 0.495. For the same molecule, the relative viability (NCI-H1651; first compound 1.265 µM) was 0.565, the relative viability (NCI-H1651; first compound 4 µM) was 0.668 and the relative viability (LC-2-ad; first compound 0.04 µM) was 0.803. It also gave a relative viability (LC-2-ad; first compound 0.1265 µM) of 0.753, a relative viability (LC-2-ad; first compound 0.4 µM) of 0.768 and a relative viability (LC-2-ad; first compound 1.265 µM) of 0.776. It also gave a relative viability (LC-2-ad; first compound 4 µM) of 0.861, a relative viability (NCI-H1734; first compound 0.04 µM) of 0.575 and a relative viability (NCI-H1734; first compound 0.1265 µM) of 0.51. It also gave a relative viability (NCI-H1734; first compound 0.4 µM) of 0.592, a relative viability (NCI-H1734; first compound 1.265 µM) of 0.477 and a relative viability (NCI-H1734; first compound 4 µM) of 0.518. The relative viability (EPLC-272H; first compound 0.04 µM) was 0.357, the relative viability (EPLC-272H; first compound 0.1265 µM) was 0.342 and the relative viability (EPLC-272H; first compound 0.4 µM) was 0.35. It also gave a relative viability (EPLC-272H; first compound 1.265 µM) of 0.356, a relative viability (EPLC-272H; first compound 4 µM) of 0.378 and a relative viability (ChaGo-K-1; first compound 0.04 µM) of 0.494. For the same molecule, the relative viability (ChaGo-K-1; first compound 0.1265 µM) was 0.52, the relative viability (ChaGo-K-1; first compound 0.4 µM) was 0.533 and the relative viability (ChaGo-K-1; first compound 1.265 µM) was 0.522. The relative viability (ChaGo-K-1; first compound 4 µM) was 0.527, the relative viability (NCI-H2170; first compound 0.04 µM) was 0.479 and the relative viability (NCI-H2170; first compound 0.1265 µM) was 0.474. It also gave a relative viability (NCI-H2170; first compound 0.4 µM) of 0.488, a relative viability (NCI-H2170; first compound 1.265 µM) of 0.469 and a relative viability (NCI-H2170; first compound 4 µM) of 0.487. The relative viability (LU99A; first compound 0.04 µM) was 0.835, the relative viability (LU99A; first compound 0.1265 µM) was 0.842 and the relative viability (LU99A; first compound 0.4 µM) was 0.962. For the same molecule, the relative viability (LU99A; first compound 1.265 µM) was 0.868, the relative viability (LU99A; first compound 4 µM) was 0.84 and the relative viability (NCI-H2405; first compound 0.04 µM) was 0.725. It also gave a relative viability (NCI-H2405; first compound 0.1265 µM) of 0.744, a relative viability (NCI-H2405; first compound 0.4 µM) of 0.866 and a relative viability (NCI-H2405; first compound 4 µM) of 0.732. The relative viability (NCI-H1395; first compound 0.04 µM) was 0.718, the relative viability (NCI-H1395; first compound 0.1265 µM) was 0.702 and the relative viability (NCI-H1395; first compound 0.4 µM) was 0.722. The relative viability (NCI-H1395; first compound 4 µM) was 0.665, the relative viability (NCI-H1793; first compound 0.04 µM) was 0.374 and the relative viability (NCI-H1793; first compound 0.1265 µM) was 0.463. For the same molecule, the relative viability (NCI-H1793; first compound 0.4 µM) was 0.599, the relative viability (NCI-H1793; first compound 1.265 µM) was 0.499 and the relative viability (NCI-H1793; first compound 4 µM) was 0.463. The relative viability (ABC-1; first compound 0.04 µM) was 1.02, the relative viability (ABC-1; first compound 0.1265 µM) was 0.79 and the relative viability (ABC-1; first compound 0.4 µM) was 1.17. For the same molecule, the relative viability (ABC-1; first compound 4 µM) was 1.22, the relative viability (NCI-H460; first compound 0.04 µM) was 0.502 and the relative viability (NCI-H460; first compound 0.1265 µM) was 0.481. For the same molecule, the relative viability (NCI-H460; first compound 0.4 µM) was 0.482, the relative viability (NCI-H460; first compound 1.265 µM) was 0.47 and the relative viability (NCI-H460; first compound 4 µM) was 0.495. For the same molecule, the relative viability (PC-3 [JPC-3]; first compound 0.04 µM) was 0.843, the relative viability (PC-3 [JPC-3]; first compound 0.1265 µM) was 0.81 and the relative viability (PC-3 [JPC-3]; first compound 0.4 µM) was 0.663. The relative viability (PC-3 [JPC-3]; first compound 1.265 µM) was 0.857, the relative viability (PC-3 [JPC-3]; first compound 4 µM) was 0.777 and the relative viability (NCI-H3122; first compound 0.04 µM) was 0.411. The relative viability (NCI-H3122; first compound 0.1265 µM) was 0.432, the relative viability (NCI-H3122; first compound 0.4 µM) was 0.406 and the relative viability (NCI-H3122; first compound 1.265 µM) was 0.438. It also gave a relative viability (NCI-H3122; first compound 4 µM) of 0.457, a relative viability (NCI-H2087; first compound 0.04 µM) of 0.286 and a relative viability (NCI-H2087; first compound 0.1265 µM) of 0.292. For the same molecule, the relative viability (NCI-H2087; first compound 0.4 µM) was 0.273, the relative viability (NCI-H2087; first compound 1.265 µM) was 0.298 and the relative viability (NCI-H2087; first compound 4 µM) was 0.275. The relative viability (NCI-H1944; first compound 0.04 µM) was 0.427, the relative viability (NCI-H1944; first compound 0.1265 µM) was 0.393 and the relative viability (NCI-H1944; first compound 0.4 µM) was 0.476. It also gave a relative viability (NCI-H1944; first compound 1.265 µM) of 0.398, a relative viability (NCI-H1944; first compound 4 µM) of 0.419 and a relative viability (LOU-NH91; first compound 0.04 µM) of 0.766. The relative viability (LOU-NH91; first compound 0.1265 µM) was 0.81, the relative viability (LOU-NH91; first compound 0.4 µM) was 0.766 and the relative viability (LOU-NH91; first compound 1.265 µM) was 0.824. The relative viability (LOU-NH91; first compound 4 µM) was 0.823, the relative viability (HCC-78; first compound 0.04 µM) was 0.744 and the relative viability (HCC-78; first compound 0.1265 µM) was 0.723. For the same molecule, the relative viability (HCC-78; first compound 0.4 µM) was 0.773, the relative viability (HCC-78; first compound 1.265 µM) was 0.719 and the relative viability (HCC-78; first compound 4 µM) was 0.684. The relative viability (RERF-LC-KJ; first compound 0.04 µM) was 0.737, the relative viability (RERF-LC-KJ; first compound 0.1265 µM) was 0.739 and the relative viability (RERF-LC-KJ; first compound 0.4 µM) was 0.866. For the same molecule, the relative viability (RERF-LC-KJ; first compound 1.265 µM) was 0.599, the relative viability (RERF-LC-KJ; first compound 4 µM) was 0.665 and the relative viability (NCI-H1755; first compound 0.04 µM) was 0.691. It also gave a relative viability (NCI-H1755; first compound 0.1265 µM) of 0.76, a relative viability (NCI-H1755; first compound 0.4 µM) of 0.745 and a relative viability (NCI-H1755; first compound 1.265 µM) of 0.707. For the same molecule, the relative viability (NCI-H1755; first compound 4 µM) was 0.728, the relative viability (UMC-11; first compound 0.04 µM) was 1.08 and the relative viability (UMC-11; first compound 0.1265 µM) was 0.624. For the same molecule, the relative viability (UMC-11; first compound 0.4 µM) was 0.462, the relative viability (UMC-11; first compound 1.265 µM) was 0.563 and the relative viability (UMC-11; first compound 4 µM) was 0.619. For the same molecule, the relative viability (HCC-366; first compound 0.04 µM) was 0.328, the relative viability (HCC-366; first compound 0.1265 µM) was 0.271 and the relative viability (HCC-366; first compound 0.4 µM) was 0.395. It also gave a relative viability (HCC-366; first compound 1.265 µM) of 0.312 and a relative viability (HCC-366; first compound 4 µM) of 0.348.
